Columns and labels:
human M2 receptor [1] = biological target: T1, human M2 receptor (Homo sapiens, UniProt P08172); conditions: M2-GIRK1/4 reporter cells; for EC50: Receptor activity EC50, allosteric potency at EC20 acetylcholine, in some cases mean of two or more determinations; for Emax: read-out: Efficiency, boosting of the acetylcholine effect at EC20 acetylcholine concentration
T1 sequence (P08172 1-466): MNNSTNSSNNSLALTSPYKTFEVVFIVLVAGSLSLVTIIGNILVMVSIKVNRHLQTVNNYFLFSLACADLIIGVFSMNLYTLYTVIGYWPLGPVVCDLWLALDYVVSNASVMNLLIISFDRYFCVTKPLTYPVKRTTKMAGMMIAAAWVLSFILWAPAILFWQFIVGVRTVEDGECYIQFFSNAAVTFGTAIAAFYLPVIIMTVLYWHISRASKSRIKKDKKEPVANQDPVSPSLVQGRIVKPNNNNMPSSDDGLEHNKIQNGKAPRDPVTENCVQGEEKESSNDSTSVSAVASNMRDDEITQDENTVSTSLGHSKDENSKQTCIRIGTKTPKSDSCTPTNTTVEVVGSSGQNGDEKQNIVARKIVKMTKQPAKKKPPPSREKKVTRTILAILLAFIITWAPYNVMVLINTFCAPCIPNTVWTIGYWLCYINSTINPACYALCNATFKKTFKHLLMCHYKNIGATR

human M2 receptor [2] = biological target: T1, human M2 receptor; assay type: cell-based; conditions: shift of acetylcholine dose-response curve (Allosteric EC50 shift); α >1 = positive cooperativity

## CC[C@H](NC(=O)c1cn(-c2c(F)cc(F)cc2F)c2nc(N3C[C@@H](C)NC3=O)ccc2c1=O)C(F)(F)F [Example 456, 7-[(4R)-4-Methyl-2-oxoimidazolidin-1-yl]-4-oxo-N-[(2S)-1,1,1-trifluorobutan-2-yl]-1-(2,4,6-trifluorophenyl)-1,4-dihydro-1,8-naphthyridine-3-carboxamide]
Human M2 receptor [1]
  EC50: 9 nM
  Emax: 92%
Human M2 receptor [2]
  Cooperativity (alpha factor): 32

## C[C@@H]1CN(c2ccc3c(=O)c(C(=O)NC(C)(C)CC(F)(F)F)cn(-c4c(F)cc(F)cc4F)c3n2)C(=O)N1 [Example 457, 7-[(4R)-4-Methyl-2-oxoimidazolidin-1-yl]-4-oxo-N-(4,4,4-trifluoro-2-methylbutan-2-yl)-1-(2,4,6-trifluorophenyl)-1,4-dihydro-1,8-naphthyridine-3-carboxamide]
Human M2 receptor [1]
  EC50: 4 nM
  Emax: 82%
Human M2 receptor [2]
  Cooperativity (alpha factor): 36

## O=C(N[C@@H](C1CC1)C(F)(F)F)c1cn(-c2c(F)cc(F)cc2F)c2nc(N3CCCC[C@@H]3CO)ccc2c1=O [Example 462, N-[(1 S)-1-Cyclopropyl-2,2,2-trifluoroethyl]-7-[(2R)-2-(hydroxymethyl)piperidin-1-yl]-4-oxo-1-(2,4,6-trifluorophenyl)-1,4-dihydro-1,8-naphthyridine-3-carboxamide]
Human M2 receptor [1]
  EC50: 18 nM
  Emax: 88%
Human M2 receptor [2]
  Cooperativity (alpha factor): 17

## CC(C)C(NC(=O)c1cn(-c2c(F)cc(F)cc2F)c2nc(N3C[C@@H](O)[C@H](O)C3)ccc2c1=O)C(C)C [Example 474, 7-[(3R,4R)-3,4-Dihydroxypyrrolidin-1-yl]-N-(2,4-dimethylpentan-3-yl)-4-oxo-1-(2,4,6-trifluorophenyl)-1,4-dihydro-1,8-naphthyridine-3-carboxamide]
Human M2 receptor [1]
  EC50: 5 nM
  Emax: 100%
Human M2 receptor [2]
  Cooperativity (alpha factor): 44

## CC(C)C(NC(=O)c1cn(-c2c(F)cc(F)cc2F)c2nc(N3C[C@@H](O)CC3=O)ccc2c1=O)C(C)C [Example 475, N-(2,4-Dimethylpentan-3-yl)-7-[(4S)-4-hydroxy-2-oxopyrrolidin-1-yl]-4-oxo-1-(2,4,6-trifluorophenyl)-1,4-dihydro-1,8-naphthyridine-3-carboxamide]
Human M2 receptor [1]
  EC50: 2 nM
  Emax: 100%
Human M2 receptor [2]
  Cooperativity (alpha factor): 68

## CC(C)(NC(=O)c1cn(-c2c(F)cc(F)cc2F)c2nc(N3CC[C@@H](O)C3=O)ccc2c1=O)C(F)(F)F [Example 488, 7-[(3R)-3-Hydroxy-2-oxopyrrolidin-1-yl]-4-oxo-N-(1,1,1-trifluoro-2-methylpropan-2-yl)-1-(2,4,6-trifluorophenyl)-1,4-dihydro-1,8-naphthyridine-3-carboxamide]
Human M2 receptor [1]
  EC50: 24 nM
  Emax: 96%
Human M2 receptor [2]
  Cooperativity (alpha factor): 53

## O=C(N[C@@H](C1CC1)C(F)(F)F)c1cn(-c2c(F)cc(F)cc2F)c2nc(N3CCC(CO)(CO)CC3)ccc2c1=O [Example 489, 7-[4,4-Bis(hydroxymethyl)piperidin-1-yl]-N-[(1S)-1-cyclopropyl-2,2,2-trifluoroethyl]-4-oxo-1-(2,4,6-trifluorophenyl)-1,4-dihydro-1,8-naphlthyridine-3-carboxamide]
Human M2 receptor [1]
  EC50: 27 nM
  Emax: 100%
Human M2 receptor [2]
  Cooperativity (alpha factor): 23

## C[C@H](O)CN(C)c1ccc2c(=O)c(C(=O)N[C@@H](C3CC3)C(F)(F)F)cn(-c3c(F)cc(F)cc3F)c2n1 [Example 493]
Human M2 receptor [1]
  EC50: 16 nM
  Emax: 94.5%
Human M2 receptor [2]
  Cooperativity (alpha factor): 14

## C[C@@H](O)CN(C)c1ccc2c(=O)c(C(=O)N[C@@H](C3CC3)C(F)(F)F)cn(-c3c(F)cc(F)cc3F)c2n1 [Example 494]
Human M2 receptor [1]
  EC50: 28 nM
  Emax: 78%
Human M2 receptor [2]
  Cooperativity (alpha factor): 20

## CC[C@H](NC(=O)c1cn(-c2c(F)cc(F)cc2F)c2nc(N3CC(CO)(CO)C3)ccc2c1=O)C(F)(F)F [Example 503, 7-[3,3-Bis(hydroxymethyl)azetidin-1-yl]-4-oxo-N-[(2S)-trifluorobutan-2-yl]-1-(2,4,6-trifluorophenyl)-1,4-dihydro-1,8-naphthyridine-3-carboxamide]
Human M2 receptor [1]
  EC50: 28 nM
  Emax: 88.5%
Human M2 receptor [2]
  Cooperativity (alpha factor): 24
